pIC50: −log10 of the molar value.
Test system: 945468-187-T-J3-PDC spheroids with HUVEC/MSC, viability
Assay: Anticancer human tumor 945468-187-T-J3-PDC patient-derived rectal carcinoma cell line growth inhibition [PI3K]
Settings: for pIC50: curve of first compound; for viability, T/C: stronger effect = lower value
Procedure, shortened: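 We assembled tumor spheroids that included a stromal compartment of HUVEC and MSCs, then exposed them to targeted agents alone and together with PI3K pathway inhibitors. Concentration series descended by half-log from clinically achievable Cmax levels. Viability served as the endpoint.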

[1] = second compound 0.0316 µM, first compound 0.0316 µM
[2] = second compound 0.0316 µM, first compound 0.1 µM
[3] = second compound 0.0316 µM, first compound 0.316 µM
[4] = second compound 0.0316 µM, first compound 1 µM
[5] = second compound 0.1 µM, first compound 0.0316 µM
[6] = second compound 0.1 µM, first compound 0.1 µM
[7] = second compound 0.1 µM, first compound 0.316 µM
[8] = second compound 0.1 µM, first compound 1 µM
[9] = second compound 0.316 µM, first compound 0.0316 µM
[10] = second compound 0.316 µM, first compound 0.1 µM
[11] = second compound 0.316 µM, first compound 0.316 µM
[12] = second compound 0.316 µM, first compound 1 µM
[13] = second compound 1 µM, first compound 0.0316 µM
[14] = second compound 1 µM, first compound 0.1 µM
[15] = second compound 1 µM, first compound 0.316 µM
[16] = second compound 1 µM, first compound 1 µM
[17] = second compound 3.16 µM, first compound 0.0316 µM
[18] = second compound 3.16 µM, first compound 0.1 µM
[19] = second compound 3.16 µM, first compound 0.316 µM
[20] = second compound 3.16 µM, first compound 1 µM
[21] = second compound 10 µM, first compound 0.0316 µM
[22] = second compound 10 µM, first compound 0.1 µM
[23] = second compound 10 µM, first compound 0.316 µM
[24] = second compound 10 µM, first compound 1 µM
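Also: spheroids exposed to agents for 7 days before viability read.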
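For viability, T/C in this document: 100% = DMSO vehicle control viability.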

Cn1nccc1Nc1nccc(-c2ccn(C(CO)c3ccc(Cl)c(F)c3)c(=O)c2)n1 (centres undefined) + Cc1nc(NC(=O)N2CCCC2C(N)=O)sc1-c1ccnc(C(C)(C)C(F)(F)F)c1
pIC50 (second compound 0.0316 µM): < 5.00
pIC50 (second compound 0.1 µM): < 5.00
pIC50 (second compound 0.316 µM): < 5.00
pIC50 (second compound 1 µM): < 5.00
pIC50 (second compound 3.16 µM): < 5.00
pIC50 (second compound 10 µM): < 5.00
viability, T/C [1]: 89.1%
viability, T/C [2]: 111%
viability, T/C [3]: 106%
viability, T/C [4]: 119%
viability, T/C (second compound 0.0316 µM, first compound 3.16 µM): 135%
viability, T/C (second compound 0.0316 µM, first compound 10 µM): 133%
viability, T/C [5]: 107%
viability, T/C [6]: 109%
viability, T/C [7]: 110%
viability, T/C [8]: 116%
viability, T/C (second compound 0.1 µM, first compound 3.16 µM): 125%
viability, T/C (second compound 0.1 µM, first compound 10 µM): 118%
viability, T/C [9]: 106%
viability, T/C [10]: 114%
viability, T/C [11]: 104%
viability, T/C [12]: 117%
viability, T/C (second compound 0.316 µM, first compound 3.16 µM): 129%
viability, T/C (second compound 0.316 µM, first compound 10 µM): 138%
viability, T/C [13]: 113%
viability, T/C [14]: 112%
viability, T/C [15]: 111%
viability, T/C [16]: 119%
viability, T/C (second compound 1 µM, first compound 3.16 µM): 144%
viability, T/C (second compound 1 µM, first compound 10 µM): 136%
viability, T/C [17]: 104%
viability, T/C [18]: 101%
viability, T/C [19]: 96.6%
viability, T/C [20]: 121%
viability, T/C (second compound 3.16 µM, first compound 3.16 µM): 91.2%
viability, T/C (second compound 3.16 µM, first compound 10 µM): 90.1%
viability, T/C [21]: 59.8%
viability, T/C [22]: 61.7%
viability, T/C [23]: 61%
viability, T/C [24]: 54.8%
viability, T/C (second compound 10 µM, first compound 3.16 µM): 52.9%
viability, T/C (second compound 10 µM, first compound 10 µM): 52.9%

CCN1CCN(Cc2ccc(Nc3ncc(F)c(-c4cc(F)c5nc(C)n(C(C)C)c5c4)n3)nc2)CC1 + CC(Nc1ncnc2nc[nH]c12)c1cc2cccc(Cl)c2c(=O)n1-c1ccccc1
pIC50 (second compound 0.0316 µM): < 6.00
pIC50 (second compound 0.1 µM): < 6.00
pIC50 (second compound 0.316 µM): < 6.00
pIC50 (second compound 1 µM): < 6.00
pIC50 (second compound 3.16 µM): < 6.00
pIC50 (second compound 10 µM): 6.12
viability, T/C (second compound 0.0316 µM, first compound 0.00316 µM): 88.7%
viability, T/C (second compound 0.0316 µM, first compound 0.01 µM): 110%
viability, T/C [1]: 107%
viability, T/C [2]: 94%
viability, T/C [3]: 102%
viability, T/C [4]: 79.2%
viability, T/C (second compound 0.1 µM, first compound 0.00316 µM): 91.5%
viability, T/C (second compound 0.1 µM, first compound 0.01 µM): 85.3%
viability, T/C [5]: 99%
viability, T/C [6]: 99.5%
viability, T/C [7]: 102%
viability, T/C [8]: 72%
viability, T/C (second compound 0.316 µM, first compound 0.00316 µM): 97.3%
viability, T/C (second compound 0.316 µM, first compound 0.01 µM): 91%
viability, T/C [9]: 89.8%
viability, T/C [10]: 113%
viability, T/C [11]: 106%
viability, T/C [12]: 72.8%
viability, T/C (second compound 1 µM, first compound 0.00316 µM): 87.8%
viability, T/C (second compound 1 µM, first compound 0.01 µM): 95.9%
viability, T/C [13]: 91.3%
viability, T/C [14]: 103%
viability, T/C [15]: 93.8%
viability, T/C [16]: 69.2%
viability, T/C (second compound 3.16 µM, first compound 0.00316 µM): 93.9%
viability, T/C (second compound 3.16 µM, first compound 0.01 µM): 101%
viability, T/C [17]: 103%
viability, T/C [18]: 95.1%
viability, T/C [19]: 93%
viability, T/C [20]: 52.5%
viability, T/C (second compound 10 µM, first compound 0.00316 µM): 91.5%
viability, T/C (second compound 10 µM, first compound 0.01 µM): 89.5%
viability, T/C [21]: 91%
viability, T/C [22]: 106%
viability, T/C [23]: 90%
viability, T/C [24]: 37.1%

— PubChem BioAssay AID1963968 (Molecular Pharmacology Branch, DTP, NCI, 2024)
